Patent US20260035387A1 (BIOGEN MA INC., priority 2022, published 2026)

Tested on: mutant Huntington (HTT) protein
Assay: HTT Mutant HTRF iPSC assay (mHTT protein lowering)
Format: cell-based
Conditions: human iPSC derived from a HTT patient with a poly-Q49 mutation

Row | Structure (SMILES) | IC50
1 | Cc1cn2cc(NC(=O)c3nc4ccc(C5=CC6CCC(C5)N6)nc4s3)cc(F)c2n1 (stereo not shown) [Compound 130, 5-(8-azabicyclo[3.2.1]oct-2-en-3-yl)-N-(8-fluoro-2-methylimidazo[1,2-a]pyridin-6-yl)thiazolo[5,4-b]pyridine-2-carboxamide] | < 100 nM
2 | COc1cc2nn(C)cc2cc1NC(=O)c1cc2nc(N3CC[C@@H](N4CCC4)C3)ccc2o1 [Compound 172, (R)-5-(3-(azetidin-1-yl)pyrrolidin-1-yl)-N-(6-methoxy-2-methyl-2H-indazol-5-yl)furo[3,2-b]pyridine-2-carboxamide] | 100 to 1000 nM
3 | CN[C@H]1CCN(c2ccc3nc(C(=O)Nc4cc(F)c5nc(C)cn5c4)sc3n2)C1 [Compound 107, (S)-N-(8-fluoro-2-methylimidazo[1,2-a]pyridin-6-yl)-5-(3-(methylamino)pyrrolidin-1-yl)thiazolo[5,4-b]pyridine-2-carboxamide] | < 100 nM
4 | Cc1cn2cc(NC(=O)c3nc4ccc(C5CCN(C)C5)nc4s3)nc(C)c2n1 (stereo not shown) [Compound 138, N-(2,8-dimethylimidazo[1,2-a]pyrazin-6-yl)-5-(1-methylpyrrolidin-3-yl)thiazolo[5,4-b]pyridine-2-carboxamide] | 100 to 1000 nM
5 | Cc1cn2cc(NC(=O)c3cc4nc(C5CCN(C)CC5)ccc4o3)cc(F)c2n1 [Compound 163, N-(8-fluoro-2-methyl-imidazo[1,2-a]pyridin-6-yl)-5-(1-methyl-4-piperidyl)furo[3,2-b]pyridine-2-carboxamide] | 100 to 1000 nM
6 | COc1cn2nc(C)cc2cc1NC(=O)c1cc2ccc(N3CCC(N(C)C)C3)nc2s1 (single isomer, unassigned) [Compound 205] | < 100 nM
7 | Cc1cn2cc(NC(=O)c3cc4ccc([C@@H]5CCCNC5)nc4s3)cc(F)c2n1 (single isomer, unassigned) [Compound 82] | < 100 nM
8 | Cc1cn2cc(NC(=O)c3cc4ccc(N5CC[C@H](N(C)C)C5)nc4s3)cc(F)c2n1 [Compound 54, 6-[(3S)-3-(dimethylamino)pyrrolidin-1-yl]-N-(8-fluoro-2-methyl-imidazo[1,2-a]pyridin-6-yl)thieno[2,3-b]pyridine-2-carboxamide] | < 100 nM
9 | Cc1cn2cc(NC(=O)c3cc4ccc(N5CCN(C6CC6)CC5)nc4s3)cc(F)c2n1 [Compound 79, 6-(4-cyclopropylpiperazin-1-yl)-N-(8-fluoro-2-methylimidazo[1,2-a]pyridin-6-yl)thieno[2,3-b]pyridine-2-carboxamide] | < 100 nM
10 | Cc1cn2cc(NC(=O)c3cc4ccc(N5CC6CCNC6C5)nc4s3)cc(F)c2n1 (stereo not shown) [Compound 237, N-(8-fluoro-2-methylimidazo[1,2-a]pyridin-6-yl)-6-(hexahydropyrrolo[3,4-b]pyrrol-5(1H)-yl)thieno[2,3-b]pyridine-2-carboxamide] | < 100 nM
11 | Cc1cn2cc(NC(=O)c3cc4ccc(N5CCC56CCNC6)nc4s3)cc(F)c2n1 (stereo not shown) [Compound 209, N-(8-fluoro-2-methylimidazo[1,2-a]pyridin-6-yl)-6-(1,6-diazaspiro[3.4]octan-1-yl)thieno[2,3-b]pyridine-2-carboxamide] | < 100 nM
12 | Cc1cn2cc(NC(=O)c3nc4ccc(C5CCNCC5)nc4s3)cc(F)c2n1 [Compound 129, N-(8-fluoro-2-methylimidazo[1,2-a]pyridin-6-yl)-5-(piperidin-4-yl)thiazolo[5,4-b]pyridine-2-carboxamide] | < 100 nM
13 | Cc1cn2cc(NC(=O)c3cc4ccc(N5CCC6(CCCN6C)C5)nc4s3)nc(C)c2n1 (stereo not shown) [Compound 208, N-(2,8-dimethylimidazo[1,2-a]pyrazin-6-yl)-6-(1-methyl-1,7-diazaspiro[4.4]nonan-7-yl)thieno[2,3-b]pyridine-2-carboxamide] | < 100 nM
14 | Cc1cn2cc(NC(=O)c3cc4ccc(N5C[C@H]6CNC[C@H]6C5)nc4s3)cc(F)c2n1 [Compound 80, N-(8-fluoro-2-methylimidazo[1,2-a]pyridin-6-yl)-6-((3aR,6aS)-hexahydropyrrolo[3,4-c]pyrrol-2(1H)-yl)thieno[2,3-b]pyridine-2-carboxamide] | 100 to 1000 nM
15 | COc1cn2nc(C)cc2cc1NC(=O)c1cc2ccc(N3CCC(N(C)C)C3)nc2s1 (single isomer, unassigned) [Compound 206] | < 100 nM
16 | CCN[C@H]1CCN(c2ccc3cc(C(=O)Nc4cc(F)c5nc(C)cn5c4)sc3n2)C1 (stereo in doubt) [Compound 67, 6-[(3S)-3-(ethylamino)pyrrolidin-1-yl]-N-(8-fluoro-2-methyl-imidazo[1,2-a]pyridin-6-yl)thieno[2,3-b]pyridine-2-carboxamide] | < 100 nM
17 | Cc1cn2cc(NC(=O)c3nc4ccc(N5CCC(N6CCC6)C5)nc4s3)cc(F)c2n1 (stereo not shown) [Compound 99, 5-(3-(azetidin-1-yl)pyrrolidin-1-yl)-N-(8-fluoro-2-methylimidazo[1,2-a]pyridin-6-yl)thiazolo[5,4-b]pyridine-2-carboxamide] | < 100 nM
18 | COc1c(NC(=O)c2cc3ccc(N4CCC5(CCCN5C)C4)nc3s2)cc2cn(C)nc2c1F (racemic) [Compound 231, N-(7-fluoro-6-methoxy-2-methyl-2H-indazol-5-yl)-6-(1-methyl-1,7-diazaspiro[4.4]nonan-7-yl)thieno[2,3-b]pyridine-2-carboxamide] | < 100 nM
19 | CN(C)C1CCN(c2ccc3cc(C(=O)Nc4cc(F)c5nn(C)cc5c4)sc3n2)C1 (stereo not shown) [Compound 65, 6-(3-(dimethylamino)pyrrolidin-1-yl)-N-(7-fluoro-2-methyl-2H-indazol-5-yl)thieno[2,3-b]pyridine-2-carboxamide] | < 100 nM
20 | Cc1cn2cc(NC(=O)c3nc4ccc(C5CCN(C)CC5)nc4s3)nc(C)c2n1 [Compound 136, N-(2,8-dimethylimidazo[1,2-a]pyrazin-6-yl)-5-(1-methylpiperidin-4-yl)thiazolo[5,4-b]pyridine-2-carboxamide] | 1000 to 9000 nM
21 | Cc1cn2cc(NC(=O)c3cc4ccc(N5CC[C@@H](N(C)C)C5)nc4s3)nc(C(F)F)c2n1 [Compound 250, (R)-N-(8-(difluoromethyl)-2-methylimidazo[1,2-a]pyrazin-6-yl)-6-(3-(dimethylamino)pyrrolidin-1-yl)thieno[2,3-b]pyridine-2-carboxamide] | < 100 nM
22 | Cc1cn2cc(NC(=O)c3nc4ccc(N5CCC6(CCCN6C)C5)nc4s3)cc(F)c2n1 (stereo not shown) [Compound 98, N-(8-fluoro-2-methylimidazo[1,2-a]pyridin-6-yl)-5-(1-methyl-1,7-diazaspiro[4.4]nonan-7-yl)thiazolo[5,4-b]pyridine-2-carboxamide] | < 100 nM
23 | Cc1cn2cc(NC(=O)c3cc4ccc(N5CCN(C)CC5)nc4s3)cc(F)c2n1 [Compound 77, N-(8-fluoro-2-methylimidazo[1,2-a]pyridin-6-yl)-6-(4-methylpiperazin-1-yl)thieno[2,3-b]pyridine-2-carboxamide] | < 100 nM
24 | COc1c(NC(=O)c2nc3ccc(N4CCC(N5CCC5)C4)nc3s2)cn2cc(C)nc2c1F (racemic) [Compound 126, 5-(3-(azetidin-1-yl)pyrrolidin-1-yl)-N-(8-fluoro-7-methoxy-2-methylimidazo[1,2-a]pyridin-6-yl)thiazolo[5,4-b]pyridine-2-carboxamide] | < 100 nM
25 | COc1c(NC(=O)c2cc3ccc(N4CCC5(CCCN5C)C4)nc3s2)cn2cc(C)nc2c1F (single isomer, unassigned) [Compound 242] | < 100 nM
